The nature of data set [1]: Metabolic stability with human liver microsomes. Format: in vitro ADME. Conditions: pH 7.6; pooled human liver microsomes, 37° C., 1 μM test compound, 1 mg/ml protein, NADPH; read-out: In vitro stability in human liver microsome incubations t1/2. As for the experimental part: Determination of Metabolic Stability with Human Liver Microsomes
The metabolic degradation of the test compound is assayed at 37° C. with pooled human liver microsomes. The final incubation volume of 100 μl per time point contains TRIS buffer pH 7.6 (0.1 M), magnesium chloride (5 mM), microsomal protein (1 mg/ml) and the test compound at a final concentration of 1 μM. Following a short preincubation period at 37° C., the reactions are initiated by addition of beta-nicotinamide adenine dinucleotide phosphate, reduced form (NADPH, 1 mM) and terminated by transfering an aliquot into acetonitrile after different time points. Additionally, the NADPH-independent degradation is monitored in incubations without NADPH, terminated at the last time point. The [%] remaining test compound after NADPH independent incubation is reflected by the parameter c(control) (metabolic stability). The quenched incubations are pelleted by centrifugation (10′000 g, 5 min). An aliquot of the supernatant is assayed by LC-MS/MS for the amount of parent compound.
The half-life (t1/2 INVITRO) is determined by the slope of the semilogarithmic plot of the concentration-time profile. The intrinsic clearance (CL_[…]) is calculated by considering the amount of protein in the incubation: CL_[…][μl/min/mg protein]=(In 2/(half-life[min]*protein content[mg/ml]))*1′000. The half-life (t1/2 INVITRO) values of selected compounds in the metabolic stability assay described above are listed in the following table

For data set [2], the system named is Neutrophil elastase activity in U937 cells. Briefly: Neutrophil elastase activity in U937 cytosolic lysate after incubation with test compound. Format: cell-based. Conditions: Homo sapiens, U-937; U937 cells incubated 48 hours with compound; NE activity in lysate; read-out: Reduction of NE-activity in U937 cells IC50. As for the experimental part:
Determination of Neutrophil Elastase Activity in U937 Cytosolic Lysate Preparation after Incubation with Test Compound Materials: Optiplate 384F were purchased from PerkinElmer (Prod. No. #6007270). 24 well Nunclon cell culture plates (No. 142475) and 96 well plates (No. 267245) were from Nunc. Dimethylsulfoxid (DMSO) was from Sigma (Prod. No. D8418). Nonidet-P40 (NP40) was from USBiological (Prod. No. N3500) Substrate, specific for Neutrophil elastase, was from Bachem (MeOSuc-Ala-Ala-Pro-Val-AMC; Prod. No. I-1270). Human neutrophil elastase was from Calbiochem (Prod. No. 324681) Buffers: Tris-buffer (100 mM Tris; 1M NaCL; pH 7.5) Tris-buffer+HSA 0.1%; Human Serum Albumin from Calbiochem (Cat#. 126658) Serine-protease buffer (20 mM Tris; 100 mM NaCL; pH 7.5)+0.1% HSA Serine protease lysis buffer: 20 mM Tris-HCL; 100 mM NaCl pH 7.5; +0.2% Nonidet-P40; PBS: phosphate buffered saline, without Ca and Mg, from Gibco Cell Culture: U937 from ECACC (Cat. No. 85011440) cultured in suspension at 37° C. and 5% CO2. Cell density: 0.2-1 Mio. Cells/ml. Medium: RPMI1640 GlutaMAX (No. 61870) with 10% FCS from Gibco Cell Seeding and Treatment: Compounds in 100% DMSO were diluted in Medium (—FCS) with 10% DMSO and further diluted according to the experiment planned. 20 μl of the compound solution was transferred in the respective wells of the 24 well plate and diluted with 2 ml cell suspension/well containing 1′10^5 cells/ml (final concentration of DMSO=0.1%). Compound dilution factor=100 Compounds (up to 7 concentrations) were tested in triplicates with 3 wells for the DMSO 0.1% control, incubated for 48 hours without medium change at 37° C., 5% CO2 and 95% relative to humidity. Cell Harvesting and Cell Lysate:
Transfer the cell suspension in 2.2 ml Eppendorf cups. Separate cells from medium by centrifugation (400×g; 5 min; RT); discard the supernatant. Resuspend in 1 ml PBS; centrifugation (400×g; 5 min; RT); wash cells twice with PBS. Add 100 μl Serin lysis buffer (ice cold) to the cell pellet; resuspend the pellet and store on ice for 15 minutes. Remove debris by centrifugation at 15000×g for 10 min at 4° C. Transfer 80-100 μl lysate supernatant in 96 well plate and store immediately at −80° C.
Neutrophil Elastase Activity Assay:
Frozen lysates were thawn at 37° C. for 10 minutes and stored on ice. Protein content was determined with Bradford protein assay. Lysates were diluted to 0.2-0.5 mg/ml protein in serine protease buffer+HSA.
Standard: NE (100 μg/ml stocksolution in Tris-buffer; stored at −80° C.) was diluted in Tris-buffer+HSA to 750 ng/ml, and further serially diluted 1:2 for the standard curve.
Buffer, blank, standard and lysate samples were transferred into 384 well plate
The increase in fluorescence (Ex360 nm/Em 460 nm) is determined over 30 minutes with a Molecular Device Spectramax M5 Fluorescence Reader. Kinetic Reduction (Vmax units/sec); 4 vmax points. The amount of neutrophil elastase (ng/ml) is calculated using the standard curve and the Spectramax software. The result is interpolated to ng/mg lysate protein using excel formula functions. […] IC50 is calculated using Graphpad Prism; nonlinear fitting (log(inhibitor) vs. response—Variable slope). The IC50 value is interpolated as the concentration of test compound which leads to a neutrophil elastase activity reduction of 50% (relative to the DMSO-treated control).

Regarding `N#C[C@H](Cc1ccc(-c2ccc3c(c2)NC(=O)C3)cc1)NC(=O)[C@H]1NC2CCC1CC2` [Example 2, (2S)—N-[(1S)-cyano-2-[4-(2-oxoindolin-6-yl)phenyl]ethyl]-3-azabicyclo[2.2.2]octane-2-carboxamide], the half-life at 1 μM in data set [1] worked out at 2 h. In addition, the IC50 (as a rule, the point on the concentration scale where inhibition reaches its midpoint) in data set [2] is 281 nM.

Turning to `CN1C(=O)Cc2ccc(-c3ccc(C[C@@H](C#N)NC(=O)[C@H]4N[C@H]5CC[C@@H]4CC5)cc3)cc21` [Example 4], the half-life at 1 μM in data set [1] is 1.47 h. In addition, the concentration for half-maximal inhibition (IC50) in data set [2] came out at 50 nM.

As for `N#Cc1ccc(-c2ccc(C[C@@H](C#N)NC(=O)[C@H]3N[C@H]4CC[C@@H]3CC4)cc2)cc1F` [Example 7, (2S)—N-[(1S)-1-cyano-2-[4-(4-cyano-3-fluoro-phenyl)phenyl]ethyl]-3-azabicyclo[2.2.2]octane-2-carboxamide], the half-life at 1 μM in data set [1] is over 2.17 h. For the same molecule, the IC50 in data set [2] was 561 nM.

Regarding `CS(=O)(=O)c1cc(-c2ccc(C[C@@H](C#N)NC(=O)[C@H]3NC4CCC3CC4)cc2)ccc1C#N` [Example 8], the half-life at 1 μM in data set [1] was over 2.17 h. The IC50 in data set [2] was found to be 469 nM.

Take `CS(=O)(=O)c1cccc(-c2ccc(C[C@@H](C#N)NC(=O)[C@H]3NC4CCC3CC4)cc2)c1` [Example 10]: in data set [1], the half-life at 1 μM was over 2.17 h. For the same molecule, the IC50 in data set [2] came to 426 nM.

Turning to `N#C[C@H](Cc1ccc(-c2ccc3c(c2)CNC3=O)cc1)NC(=O)[C@H]1NC2CCC1CC2` [Example 11], in data set [1], the half-life at 1 μM is over 2.17 h. Also, the IC50 in data set [2] was 328 nM.

Regarding `CS(=O)(=O)Nc1cccc(-c2ccc(C[C@@H](C#N)NC(=O)[C@H]3NC4CCC3CC4)cc2)c1` [Example 12], in data set [1], the half-life at 1 μM came to 1.07 h. For the same molecule, the IC50 in data set [2] is 450 nM.
